In PubChem BioAssay AID2060604 (Molecular Pharmacology Branch, DTP, NCI, 2025):

Tested on: 379773-124-R-J2-PDC complex spheroids, viability % test/control
Test: Anticancer human tumor 379773-124-R-J2-PDC patient-derived endometrial carcinoma cell line growth inhibition [CLK]
Conditions: for IC50: curve of first compound; for viability, T/C: stronger effect = lower value
Summary of the method: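 Multi-cell-type spheroids combined patient-derived tumor cells with HUVEC endothelial cells and human mesenchymal stem cells. Paired agents were dosed in half-log steps down from about clinical Cmax, or from 10 microM where Cmax was unknown.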

[1] = second compound 0.0316 µM, first compound 0.0316 µM
[2] = second compound 0.0316 µM, first compound 0.1 µM
[3] = second compound 0.0316 µM, first compound 0.316 µM
[4] = second compound 0.0316 µM, first compound 1 µM
[5] = second compound 0.0316 µM, first compound 3.16 µM
[6] = second compound 0.0316 µM, first compound 10 µM
[7] = second compound 0.1 µM, first compound 0.0316 µM
[8] = second compound 0.1 µM, first compound 0.1 µM
[9] = second compound 0.1 µM, first compound 0.316 µM
[10] = second compound 0.1 µM, first compound 1 µM
[11] = second compound 0.1 µM, first compound 3.16 µM
[12] = second compound 0.1 µM, first compound 10 µM
[13] = second compound 0.316 µM, first compound 0.0316 µM
[14] = second compound 0.316 µM, first compound 0.1 µM
[15] = second compound 0.316 µM, first compound 0.316 µM
[16] = second compound 0.316 µM, first compound 1 µM
[17] = second compound 0.316 µM, first compound 3.16 µM
[18] = second compound 0.316 µM, first compound 10 µM
[19] = second compound 1 µM, first compound 0.0316 µM
[20] = second compound 1 µM, first compound 0.1 µM
[21] = second compound 1 µM, first compound 0.316 µM
[22] = second compound 1 µM, first compound 1 µM
[23] = second compound 1 µM, first compound 3.16 µM
[24] = second compound 1 µM, first compound 10 µM
[25] = second compound 3.16 µM, first compound 0.0316 µM
[26] = second compound 3.16 µM, first compound 0.1 µM
[27] = second compound 3.16 µM, first compound 0.316 µM
[28] = second compound 3.16 µM, first compound 1 µM
[29] = second compound 3.16 µM, first compound 3.16 µM
[30] = second compound 3.16 µM, first compound 10 µM
[31] = second compound 10 µM, first compound 0.0316 µM
[32] = second compound 10 µM, first compound 0.1 µM
[33] = second compound 10 µM, first compound 0.316 µM
[34] = second compound 10 µM, first compound 1 µM
[35] = second compound 10 µM, first compound 3.16 µM
[36] = second compound 10 µM, first compound 10 µM
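Note: compound exposure lasted seven days before the viability readout.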
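Throughout, for viability, T/C: 100% = DMSO vehicle control wells.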

Compound: CC(=O)O[C@H]1C(=O)[C@@]2(C)[C@H]([C@H](OC(=O)c3ccccc3)[C@]3(O)C[C@H](OC(=O)[C@H](O)[C@@H](NC(=O)c4ccccc4)c4ccccc4)C(C)=C1C3(C)C)[C@]1(OC(C)=O)CO[C@@H]1C[C@@H]2O + CN1CCN(c2cc(C(=O)Nc3cc4cc(-c5cnn(C)c5)ccc4cn3)ccn2)CC1
- IC50 (second compound 0.0316 µM): < 31.6 nM
- IC50 (second compound 0.1 µM): < 31.6 nM
- IC50 (second compound 0.316 µM): < 31.6 nM
- IC50 (second compound 1 µM): < 31.6 nM
- IC50 (second compound 3.16 µM): < 31.6 nM
- IC50 (second compound 10 µM): < 31.6 nM
- viability, T/C [1]: 7.03%
- viability, T/C [2]: 7.96%
- viability, T/C [3]: 7.37%
- viability, T/C [4]: 6.76%
- viability, T/C [5]: 6.08%
- viability, T/C [6]: 6.39%
- viability, T/C [7]: 5.82%
- viability, T/C [8]: 7.72%
- viability, T/C [9]: 7.07%
- viability, T/C [10]: 6.35%
- viability, T/C [11]: 6.66%
- viability, T/C [12]: 8.15%
- viability, T/C [13]: 5.25%
- viability, T/C [14]: 5.87%
- viability, T/C [15]: 5.15%
- viability, T/C [16]: 5.39%
- viability, T/C [17]: 7.05%
- viability, T/C [18]: 7.94%
- viability, T/C [19]: 0.07%
- viability, T/C [20]: 0.08%
- viability, T/C [21]: 0.18%
- viability, T/C [22]: 1.42%
- viability, T/C [23]: 0.21%
- viability, T/C [24]: 0.05%
- viability, T/C [25]: 0.21%
- viability, T/C [26]: 0.13%
- viability, T/C [27]: 2.68%
- viability, T/C [28]: 0.06%
- viability, T/C [29]: 0.46%
- viability, T/C [30]: 0.1%
- viability, T/C [31]: 0.05%
- viability, T/C [32]: 1.24%
- viability, T/C [33]: 0.14%
- viability, T/C [34]: 0.91%
- viability, T/C [35]: 0.48%
- viability, T/C [36]: 0.46%

Compound: CCc1c2c(nc3ccc(O)cc13)-c1cc3c(c(=O)n1C2)COC(=O)[C@]3(O)CC + CN1CCN(c2cc(C(=O)Nc3cc4cc(-c5cnn(C)c5)ccc4cn3)ccn2)CC1
- IC50 (second compound 0.0316 µM): < 3.16 nM
- IC50 (second compound 0.1 µM): < 3.16 nM
- IC50 (second compound 0.316 µM): < 3.16 nM
- IC50 (second compound 1 µM): < 3.16 nM
- IC50 (second compound 3.16 µM): < 3.16 nM
- IC50 (second compound 10 µM): < 3.16 nM
- viability, T/C (second compound 0.0316 µM, first compound 0.00316 µM): 14.1%
- viability, T/C (second compound 0.0316 µM, first compound 0.01 µM): 8.12%
- viability, T/C [1]: 3.67%
- viability, T/C [2]: 2.7%
- viability, T/C [3]: 0.99%
- viability, T/C [4]: 0.98%
- viability, T/C (second compound 0.1 µM, first compound 0.00316 µM): 10.7%
- viability, T/C (second compound 0.1 µM, first compound 0.01 µM): 7.87%
- viability, T/C [7]: 5.68%
- viability, T/C [8]: 1.93%
- viability, T/C [9]: 1%
- viability, T/C [10]: 0.47%
- viability, T/C (second compound 0.316 µM, first compound 0.00316 µM): 10.6%
- viability, T/C (second compound 0.316 µM, first compound 0.01 µM): 9.07%
- viability, T/C [13]: 3.15%
- viability, T/C [14]: 1.65%
- viability, T/C [15]: 0.34%
- viability, T/C [16]: 0.08%
- viability, T/C (second compound 1 µM, first compound 0.00316 µM): 0.11%
- viability, T/C (second compound 1 µM, first compound 0.01 µM): 0.18%
- viability, T/C [19]: 0.1%
- viability, T/C [20]: 0.34%
- viability, T/C [21]: 0.05%
- viability, T/C [22]: 0.05%
- viability, T/C (second compound 3.16 µM, first compound 0.00316 µM): 0.07%
- viability, T/C (second compound 3.16 µM, first compound 0.01 µM): 0.08%
- viability, T/C [25]: 0.13%
- viability, T/C [26]: 0.73%
- viability, T/C [27]: 0.09%
- viability, T/C [28]: 0.08%
- viability, T/C (second compound 10 µM, first compound 0.00316 µM): 0.45%
- viability, T/C (second compound 10 µM, first compound 0.01 µM): 0.11%
- viability, T/C [31]: 0.2%
- viability, T/C [32]: 1.89%
- viability, T/C [33]: 0.75%
- viability, T/C [34]: 0.18%

Compound: O=c1[nH]cc(F)c(=O)[nH]1 + CN1CCN(c2cc(C(=O)Nc3cc4cc(-c5cnn(C)c5)ccc4cn3)ccn2)CC1
- IC50 (second compound 0.0316 µM): > 10000 nM
- IC50 (second compound 0.1 µM): > 10000 nM
- IC50 (second compound 0.316 µM): < 31.6 nM
- IC50 (second compound 1 µM): < 31.6 nM
- IC50 (second compound 3.16 µM): < 31.6 nM
- IC50 (second compound 10 µM): < 31.6 nM
- viability, T/C [1]: 92.2%
- viability, T/C [2]: 86.8%
- viability, T/C [3]: 93.4%
- viability, T/C [4]: 82.3%
- viability, T/C [5]: 74.5%
- viability, T/C [6]: 56.2%
- viability, T/C [7]: 82%
- viability, T/C [8]: 82.2%
- viability, T/C [9]: 78.4%
- viability, T/C [10]: 67.4%
- viability, T/C [11]: 70.6%
- viability, T/C [12]: 54.1%
- viability, T/C [13]: 24.9%
- viability, T/C [14]: 23.4%
- viability, T/C [15]: 28.6%
- viability, T/C [16]: 22.5%
- viability, T/C [17]: 19.1%
- viability, T/C [18]: 14.8%
- viability, T/C [19]: 0.12%
- viability, T/C [20]: 0.11%
- viability, T/C [21]: 0.1%
- viability, T/C [22]: 0.08%
- viability, T/C [23]: 1.26%
- viability, T/C [24]: 0.11%
- viability, T/C [25]: 0.39%
- viability, T/C [26]: 1.04%
- viability, T/C [27]: 0.08%
- viability, T/C [28]: 1.36%
- viability, T/C [29]: 0.05%
- viability, T/C [30]: 0.94%
- viability, T/C [31]: 1.85%
- viability, T/C [32]: 1.37%
- viability, T/C [33]: 0.12%
- viability, T/C [34]: 0.11%
- viability, T/C [35]: 0.1%
- viability, T/C [36]: 0.68%
